The subject of series [1] is Staphylococcus aureus (NEWP0023). Put plainly: Broth microdilution with TTC, S. aureus. Particulars: 24 h, 36 °C. The format is cell-based. Background: Broth dilution looks for growth in wells or tubes with falling amounts of substance.
The test system of series [2] is Escherichia coli (NEWP0022). Put plainly: Broth microdilution with TTC, E. coli. The format is cell-based. As to conditions: 24 h, 36 °C.
The subject of series [3] is HCT-116 (human colon cancer). Put plainly: MTT growth-inhibition assay, HCT-116. As to conditions: 72 h; for inhibition at 50 µM: read-out: Inhibition percentage (growth), HCT 116. The series is classed as cell-based. Background: Tetrazolium dyes change colour on reduction, which living cells bring about.
Series [4] relates to MCF-7 (human breast cancer). Put plainly: MTT growth-inhibition assay, MCF-7. Particulars: 72 h; for inhibition at 50 µM: MCF7, 50 μM, read-out: Inhibition percentage (growth), MCF-7. The series is classed as cell-based.
Another series can be described thus: in vitro. As to conditions: hamster.

Converted amounts (≈) assume the structure as drawn.

Protocol for in vitro: The compounds were further diluted in a culture medium to a final concentration of 10 μM.
The proliferation assay was performed based on WST-8, using the Cell Counting kit-8. After incubation with the compounds, 10 μL per well of CCK8 solution was added, and the plates were incubated in a CO2 incubator at 37 °C for 2 h. Then, the absorbance was measured at 450 nm in the SpectraMax 384 Plate Reader. Cells in 1% DMSO were used as a negative control for the assay.

The term MIC denotes the least concentration at which growth counts as inhibited. Lower therefore signals greater potency. For the molecule `COc1c(O)cc2oc(-c3ccc(O)cc3)c(O[C@@H]3O[C@H](CO)[C@@H](O)[C@H](O)[C@H]3O)c(=O)c2c1O` [Compound 5, 6-Methoxykaempferol-3-O-β-glucopyranoside], the MIC in series [1] was not below 500 µg/mL; in series [2] it was not below 250 µg/mL.
A word on the IC50: it is the concentration that inhibits the measured activity by half. In the case of `COc1cccc2c1C(=O)c1c(O)c3c(c(O)c1C2=O)C[C@@](O)(C(=O)CO)C[C@@H]3O[C@H]1C[C@H](N)[C@H](O)[C@H](C)O1` [Doxorubicin, doxorubicin, reference compound], the IC50 was 180 nM in series [3] (positive control, 95% confidence interval in brackets) and 1160 nM in series [4] (MCF7, positive control, 95% confidence interval in brackets).
By inhibition is commonly meant the change of the read-out against control, counted positive when it falls. On to `COc1c(O)cc2oc(-c3ccc(O)cc3)c(O)c(=O)c2c1O` [Compound 1, 6-Methoxykaempferol], for which the results for the inhibition at 50 µM in series [3] and in series [4] were 29.2% and 19.2%, respectively. For the same molecule, the minimal inhibitory concentration (MIC) in series [1] was 250 µg/mL (≈ 790 µM); in series [2], not below 250 µg/mL.
A word on the viability: it is a per cent measure of how many cells are alive, often set against a control. Lower therefore signals a greater loss of cells. For `COc1c(O)cc2oc(-c3ccc(O)cc3)c(OC3OC(COC(=O)C=Cc4ccc(O)cc4)C(O)C(O)C3O)c(=O)c2c1O` [Compound 4, 6-Methoxykaempferol-3-O-β-D-6″-(p-coumaroyl)-glycopyranoside], the inhibition at 50 µM was determined as 11.5% in series [3] and 3.45% in series [4]. In addition, the MIC is not below 500 µg/mL in series [1] and not below 250 µg/mL in series [2]. This molecule had a viability at 10 µM in the series “in vitro” of 100%.
As to `CNC(C)C1CCC(N)C(OC2C(N)CC(N)C(OC3OCC(C)(O)C(NC)C3O)C2O)O1` (stereo not drawn) [gentamicin, reference compound], the MIC in series [1] and in series [2] was not above 0.5 µg/mL throughout.

The values above are taken from PMC12223841, “Compounds Isolated from Paepalanthus spp. (Eriocaulaceae) and Their Evaluation in Antimicrobial, Cytotoxic, and Antiviral Assays” (ACS Omega, 2025).
